{"source": "patent US20120004193A1", "about": "“PROCESS FOR PRODUCTION OF ORALLY INGESTIBLE COMPOSITION CONTAINING ARABINOFURANOSYL VITEXIN, AND USE OF THE COMPOSITION” (Fuji Sangyo Co., Ltd., priority 2009, published 2012)", "tested_on": "ICR mice", "assay": "Sedative and sleep-inducing activities in thiopental sodium-treated mice", "type": "in vivo, mouse", "details": "100 mg/kg body weight oral, thiopental sodium 30 mg/kg i.p. 45 minutes later, measured over 40 minutes, compared with negative control group, p<0.01 (Dunnet)", "method": "The arabinofuranosyl vitexin-isolated product obtained in the above-mentioned procedure (1) was used to study sedative and sleep-inducing effects. A sample was orally administered to six ICR mice (body weight: 40 to 45 g).\nAs the sample, the ‘arabinofuranosyl vitexin (100 mg/kg body weight)’ dissolved in physiological saline was orally administered. It should be noted that ‘diazepam (2 mg/kg body weight)’ having a sleep-inducing effect was dissolved in physiological saline and orally administered as a positive control, and ‘physiological saline alone’ was orally administered as a negative control.\nThen, 45 minutes after the oral administration of the sample, thiopental sodium (30 mg/kg body weight) […] was administered intraperitoneally, and the mice were individually placed in mouse cages (17 cm×27 cm).\nIn a period from the start of the administration of thiopental sodium to 40 minutes later, a total time when a mouse stopped moving for one or more minutes and got in a sleep state was measured to evaluate the sedative and sleep-inducing effects.\nIt should be noted that the symbol in FIG. 2 represents that there is a significant difference compared with the negative control group at a risk rate of less than 1% (p<0.01) by a Dunnet multiple comparison assay.", "data": [{"compound": "O=c1cc(-c2ccc(O)cc2)oc2c(C3OC(CO)C(O)C(O)C3OC3OC(CO)C(O)C3O)c(O)cc(O)c12", "note": "[arabinofuranosyl vitexin, 2″-O-α-D-arabinofuranosyl vitexin]", "values": [{"measurement": "sedation and sleeping times (total time when a mouse stopped moving for one or more minutes and got in a sleep state)", "result": "extended significantly"}]}]}
